Data from publication PMC12473014, “Granzyme B PET Imaging Enables Early Assessment of Immunotherapy Response in a Humanized Melanoma Mouse Model” (Pharmaceuticals, 2025).
Like-named read-outs stand apart in the source and are kept apart here.

Tests used:
active human GZB [1] = biological target: T1, active human GZB (Homo sapiens, UniProt P10144); test: Fluorometric human GZB enzymatic inhibition assay (ab157403); type: biochemical; parameters: Each dilution was combined with 0.1 µg/µL of active GZB protein (ab285779); purchased ab285779; settings: 0.1 µg/µL active GZB, 5000 to 0.00002048 nM, 50 µL, duplicate, kinetic mode after 90 min at 27 °C, CI: 2.95–5.98, read-out: inhibition constant (Ki)
Description: (§1) NOTA-CYT-200 was synthesized (CytoSite Biopharma, Sudbury, MA, USA) with a high chemical purity (>95%) and characterized using mass spectrometry. We performed a fluorometric human GZB activity assay (ab157403) to determine the inhibitor constant (Ki) of NOTA-CYT-200 for active human GZB enzyme activity in vitro. NOTA-CYT-200 was serially diluted with GZB assay buffer, starting from 5000 to 0.00002048 nanomolar. Each dilution was combined with 0.1 µg/µL of active GZB protein (ab285779) and the provided fluorophore. Each well contained a total volume of 50 µL, and all the samples were tested in duplicate using a microplate reader in kinetic mode (BioTek Cytation5, Winooski, VT, USA) after 90 min of incubation at 27 °C. The in vivo specificity of NOTA-CYT-200 labeled with 68gallium (^68Ga-NOTA-CYT-200) for the active human GZB protein was evaluated in non-tumor-bearing naive NSG mice (n = 8) following a subcutaneous injection of 80 µL of Matrigel alone (Corning™ Matrigel™ Membrane Matrix) or 65 µL of Matrigel containing 15 µL of active human GZB protein (0.05 µg/µL, totaling 0.75 µg GZB) into each animal’s shoulder. […] The uptake of ^68Ga-NOTA-CYT-200, measured as standard uptake values (SUVs) within the implanted regions, was assessed using the VivoQuant™ software, version 4.0 (InVicro, Needham, MA, USA). […]

active human GZB protein = test: PET uptake in subcutaneous Matrigel implants with or without active GZB (in vivo specificity); settings: n = 8, SUV normalized to blood pool, 1 h after i.v. 4.39 MBq, mean ± SEM
Description: as §1

active human GZB [2] = biological target: T1, active human GZB; test: PET/CT liver uptake (LBR) in humanized NSG mice with G361 melanoma; type: in vivo; settings: for liver-to-blood ratio (LBR): n = 8, mean ± SEM
Description: (§2) Human melanoma G361 (ATCC®) cells were cultured in McCoy’s Medium (Thermo-Fisher, Waltham, MA, USA) supplemented with 10% fetal bovine serum (Thermo-Fisher) and 1% penicillin–streptomycin (Thermo-Fisher) at 37 °C with 5% CO2. The mice were then subcutaneously (s.c.) implanted with 2 × 10^6 G361 cells suspended in Matrigel and 100 µL of phosphate-buffered saline (Sigma-Aldrich, St. […] To estimate the tumor volume, both the longest and shortest perpendicular diameters were measured. These measurements were then combined using a standard method commonly employed in preclinical studies to approximate the tumor volume, providing a reliable estimate of the three-dimensional tumor size. Four days after tumor implantation, the tumors measured 336 ± 38 mm^3. The mice were then randomly assigned to receive three doses at three-day intervals of either 200 µg/100 µg of an anti-PD1/CTLA4 combination therapy (combination group, n = 15), 200 µg of anti-PD1 as a monotherapy (monotherapy group, n = 15), or a vehicle solution (controls, n = 12) via an intraperitoneal (i.p.) injection. A subset of mice (combination: n = 8, monotherapy: n = 9, controls: n = 6) underwent PET/CT imaging before treatment (baseline), as well as 4 days (timepoint 2), 1 week (timepoint 3), and 2 weeks (timepoint 4) after the treatment began (Figure 7). ^68Gallium was obtained by eluting a ^68Ga/^68Ge generator (Eckert and Ziegler, Berlin, Germany) with 0.1 molar HCl. A total of 2 mL of eluted ^68gallium was mixed with 100 µL of NOTA-CYT-200, stored in a stock solution of 1 mg/mL of metal-free water (OmniTrace Ultra, Millipore, Burlington, MA, USA) and two molar HEPES buffer to adjust the pH to 3.5–4.0. The reaction was incubated at 95 °C for 10 min. The mixture was then adjusted to a pH of 7.0 using sodium hydroxide (NaOH) before being administered intravenously via the tail vein. A total of 3.96 MBq ± 0.81 of ^68Ga-NOTA-CYT-200 was injected 60 ± 5 min prior to PET/CT acquisition. The PET/CT images were acquired in static mode using a small animal Argus PET/CT scanner (Sedecal, Madrid, Spain) in two bed positions over 20 min. The PET images were reconstructed using (2 iterations and 16 subsets) 2D-OSEM and corrected for randoms and scatter. Post-acquisition, the PET/CT images were analyzed by two blinded investigators using the VivoQuant™ software, version 4.0 (InVicro). Standard uptake values (SUVs) for the tumor, liver, and colon were normalized to the blood pool activity measured by drawing a region of interest around the left ventricle of the heart, yielding target-to-background ratios (TBR for tumor, LBR for liver, and CBR for colon). This normalization accounts for the nonspecific background signal and enables a comparison of the uptake across the groups and imaging timepoints. Prism (version 9.2; GraphPad) was used to perform quantitative data analyses. The data are presented as the mean ± SEM. The means of the two groups were compared using unpaired Student’s t-tests when appropriate.

in vivo = test: in vivo; parameters: species or system NSG mice; settings: mouse; for tissue uptake at 1 h: NSG, iv, total radioactivity
Description: The ^68Ga-NOTA-CYT-200 biodistribution was evaluated for each treatment group four days after the initial dose. Major organs, such as the tumor, heart, lungs, liver, spleen, stomach, pancreas, intestines, kidneys, muscles, bones, skin, and brain from each mouse, were excised exactly one hour after the i.v. administration of 52.83 µCi ± 0.87 (controls, n = 3), 41.83 µCi ± 5.93 (mono, n = 4), or 34.65 µCi ± 3.82 (combination, n = 4) ^68Ga-NOTA-CYT-200. Each organ was weighed individually before measuring the activity with an automatic gamma counter (PerkinElmer Wallac Wizard 2480, Waltham, MA, USA).

active human GZB [3] = biological target: T1, active human GZB; type: in vivo; settings: for mean TBR: mean ± SEM
Description: as §2

active human GZB [4] = biological target: T1, active human GZB; test: PET/CT intestinal/colon uptake (CBR) in humanized NSG mice with G361 melanoma; type: in vivo; settings: mean ± SEM
Description: as §2

T1 sequence (P10144 21-247): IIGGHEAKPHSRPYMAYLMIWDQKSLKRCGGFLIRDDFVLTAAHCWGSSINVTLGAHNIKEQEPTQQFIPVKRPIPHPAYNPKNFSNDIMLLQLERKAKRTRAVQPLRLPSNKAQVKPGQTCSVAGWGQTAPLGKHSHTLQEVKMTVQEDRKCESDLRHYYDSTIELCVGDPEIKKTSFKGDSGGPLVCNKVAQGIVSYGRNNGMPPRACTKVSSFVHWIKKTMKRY

## CC[C@H](C)[C@H](NC(=O)CNC(=O)CNC(=O)[C@H](CCC(=O)O)NC(=O)Cc1ccc(CC2CN(CC(=O)O)CCN(CC(=O)O)CCN2CC(=O)O)cc1)C(=O)N[C@H]1CCc2cccc3c2N(C1=O)[C@H](C(=O)N[C@H]1CC(=O)OC1O)C3 (stereo partly shown) [NOTA-CYT-200]
Active human GZB [1]
  Ki: 4.2 nM

## CC[C@H](C)[C@H](NC(=O)CNC(=O)CNC(=O)[C@H](CCC(=O)O)NC(=O)Cc1ccc(CC2CN(CC(=O)O)CCN(CC(=O)O)CCN2CC(=O)O)cc1)C(=O)N[C@H]1CCc2cccc3c2N(C1=O)[C@H](C(=O)N[C@H]1CC(=O)OC1O)C3 (stereo partly shown) [^68Ga-NOTA-CYT-200, metal not drawn]
Active human GZB protein; Matrigel containing active GZB protein (0.75 µg), p = 0.0045 vs Matrigel without protein
  radiotracer uptake in implant: 6.18 ± 2.92
Active human GZB protein; Matrigel without the protein
  radiotracer uptake in implant: 2.48 ± 1.01
Active human GZB [2]; baseline, combination
  liver-to-blood ratio (LBR): 2.98 ± 0.34
Active human GZB [2]; day 4, combination, p < 0.0001 vs baseline
  liver-to-blood ratio (LBR): 6.93 ± 1.04
Active human GZB [2]; day 4, monotherapy, n = 9, p = 0.023
  LBR change versus baseline: significant LBR increase on day 4 versus baseline
Active human GZB [2]; day 7, combination, p < 0.0001 vs baseline
  liver-to-blood ratio (LBR): 7.16 ± 1.03
Active human GZB [2]; day 14, combination, p = 0.91 vs baseline, p = 0.0004 and 0.0001 vs days 4 and 7
  liver-to-blood ratio (LBR): 3.52 ± 0.27
Active human GZB [2]; days 7 and 14, monotherapy, n = 9, p = 0.93 and p = 0.71
  LBR change versus baseline: remained comparable to baseline
Active human GZB [2]; post-treatment timepoints, controls, n = 6, p 0.43 to 0.71
  LBR change versus baseline: none of the post-treatment LBR values were significantly different from baseline
In vivo; 41.83 uCi, kidney uptake
  tissue uptake at 1 h: 1.47 ± 0.37 %ID/g
In vivo; 41.83 uCi, tumor uptake
  tissue uptake at 1 h: 0.25 ± 0.06 %ID/g
In vivo; 52.83 uCi, intestinal uptake
  tissue uptake at 1 h: 0.17 ± 0.13 %ID/g
In vivo; 52.83 uCi, kidney uptake
  tissue uptake at 1 h: 1.32 ± 0.84 %ID/g
In vivo; 52.83 uCi, tumor uptake
  tissue uptake at 1 h: 0.12 ± 0.03 %ID/g
In vivo
  main organ of tracer elimination: kidney as the main organ responsible for tracer elimination
Active human GZB [3]; baseline, combination (anti-PD1/CTLA4), n = 8
  mean TBR: 1.47 ± 0.2
Active human GZB [3]; baseline, monotherapy (anti-PD1), n = 9
  mean TBR: 1.25 ± 0.17
Active human GZB [3]; control group (vehicle)
  off-target binding in tumors of the control group: some off-target binding
Active human GZB [3]; controls, n = 6
  highest TBR on day 4 or day 7: 1.75 ± 0.39
Active human GZB [3]; day 4, treatment non-responders (TNRs), n = 6, p = 0.02 vs controls
  TBR, responder analysis: 2.7 ± 0.9
Active human GZB [3]; day 4, treatment responders (TRs), n = 3, p < 0.0001 vs controls
  TBR, responder analysis: 4.0 ± 1.2
Active human GZB [3]; day 4 after treatment start, combination (anti-PD1/CTLA4), n = 8, p < 0.0001 vs controls, p = 0.027 vs monotherapy
  mean TBR: 3.88 ± 0.47
Active human GZB [3]; day 4 after treatment start, controls (vehicle), n = 6
  mean TBR: 1.15 ± 0.13
Active human GZB [3]; day 4 after treatment start, monotherapy (anti-PD1), n = 9, p = 0.0005 vs controls
  mean TBR: 2.84 ± 0.3
Active human GZB [3]; day 7, combination (anti-PD1/CTLA4), n = 8, p = 0.0052 vs monotherapy, p = 0.0003 vs controls
  mean TBR: 3.5 ± 0.48
Active human GZB [3]; day 7, controls (vehicle), n = 6
  mean TBR: 1.69 ± 0.2
Active human GZB [3]; day 7, monotherapy (anti-PD1), n = 9, p = 0.59 vs controls
  mean TBR: 2.14 ± 0.11
Active human GZB [3]; day 14, combination (anti-PD1/CTLA4), n = 8, p = 0.01 vs monotherapy, p = 0.05 vs controls
  mean TBR: 3.05 ± 0.43
Active human GZB [3]; day 14, controls (vehicle), n = 6
  mean TBR: 1.97 ± 0.28
Active human GZB [3]; day 14, monotherapy (anti-PD1), n = 9, p = 0.88 vs controls
  mean TBR: 1.75 ± 0.15
Active human GZB [3]; in vivo
  inhibition of the inflammatory response to immunotherapy by tracer injection: did not observe any obvious inhibition of the inflammatory response to immunotherapy
Active human GZB [3]; treatment non-responders (TNRs), n = 6, p = 0.175 vs controls
  highest TBR on day 4 or day 7: 2.73 ± 0.88
Active human GZB [3]; treatment responders (TRs), n = 3, p = 0.0002 vs controls, p = 0.0109 vs TNRs
  highest TBR on day 4 or day 7: 4.28 ± 1.20
Active human GZB [4]; baseline, combination, n = 8
  intestinal/colon-to-blood ratio (CBR): 3.5 ± 0.62
Active human GZB [4]; baseline, controls, n = 6
  intestinal/colon-to-blood ratio (CBR): 2.11 ± 0.56
Active human GZB [4]; baseline, monotherapy, n = 9
  intestinal/colon-to-blood ratio (CBR): 2.68 ± 0.43
Active human GZB [4]; day 4, combination, n = 8, p = 0.029 vs baseline
  intestinal/colon-to-blood ratio (CBR): 6.81 ± 1.21
Active human GZB [4]; day 4, monotherapy, n = 9, p = 0.07 vs baseline
  intestinal/colon-to-blood ratio (CBR): 5.41 ± 0.98
Active human GZB [4]; day 7, combination, n = 8, p = 0.96 vs baseline
  intestinal/colon-to-blood ratio (CBR): 6.21 ± 1.23
Active human GZB [4]; day 7, monotherapy, n = 9, p = 0.8 vs baseline
  intestinal/colon-to-blood ratio (CBR): 3.75 ± 0.57
Active human GZB [4]; day 14, combination, n = 8, p = 0.99 vs baseline
  intestinal/colon-to-blood ratio (CBR): 4.09 ± 0.97
Active human GZB [4]; day 14, monotherapy, n = 9, p = 0.99 vs baseline
  intestinal/colon-to-blood ratio (CBR): 2.25 ± 0.36
